Results taken from US20240208961A1, “EIF4E INHIBITORS AND USES THEREOF” (PIC Therapeutics, Inc., priority 2022, published 2024).
Values joined by “and” are separate entries in the source; they are usually repeats but may differ in a detail not shown here. Identical values can stand only once. Like-named read-outs stand apart in the source and are kept apart here.

Assay: Pharmacokinetic study of I-11 in female BALB/c mice (Example 4)
Type: in vivo, Balb/c mouse
Experimental: Pharmacokinetic Study in Female BALB/c Mice: Balb/c mouse, 17-19 g, 8-10 weeks, female, N=27, purchased from JH Laboratory Animal Co. LTD
Fasted overnight and fed at 4 hr post dosing.
Animals dosed with sampling at 0.083, 0.25, 0.5, 1, 2, 4, 8, 24 hr post dose. 8 time points. Semi-serial bleeding for plasma only. The animals were restrained manually at the designated time points. Approx. 110 μL of blood/time point was taken from the animals via facial vein into tubes with K2EDTA. Blood sample was centrifuged at 4° C. (2000 g, 5 min) to obtain plasma within 15 m after sample collection. Put on wet ice, then plasma samples were stored at approximately −70° C. until analysis.
For oral gavage, compound was dosed as a suspension in […] carboxymethyl cellulose (CMC), 0.2% Tween 80 in water. Compound was orally dosed at 50 mg/Kg, at 100 mg/Kg.
For IV dosing, compound was dissolved into a solution of […], […] HS 15 and 90% Saline. Compound was IV dosed at 5 mg/Kg.
Plasma samples were analyzed for I-11 using LC-MS using a calibration curve of known concentrations.
FIG. 1 describes the mean plasma concentration-time profiles of I-11 after single IV dose of 5 mg/kg, PO dose of 50 mg/kg and 100 mg/kg in female Balb/c mice (N=3/time point). • Note: • 1. […] The IV dosing solutions were prepared in 5% DMSO+5% Solutol HS15+90% Saline. The PO dosing solutions were prepared in 1% CMC-Na+0.2% Tween 80 in water. • 3. BQL=Below quantifiable limit of 3.00 ng/mL for I-11 in female Balb/c mouse plasma samples. • 4. PK parameters were estimated by non-compartmental model using WinNonlin 8.2. If the adjusted rsq (linear regression coefficient of the concentration value on the terminal phase) is less than 0.9, T1/2 might not be accurately estimated. • 5. F value was determined by the following equation: • If AUClast/AUCINF>80%:
F=(AUCINF-EX×DOSEIV)/(AUCINF-IV×DOSEEX)[…] • If AUClast/AUCINF<80% or AUCINF not available:
F=([…])/(AUClast-IV×DOSEEX)[…] • 6. NA: Not available.

[1] = IV 5 mg/kg, 24 hr, BQL = below quantifiable limit of 3.00 ng/mL

CC(C)Cc1sc(Nc2ncc(-c3cccs3)cc2C(=O)O)nc1C(C)(C)C [Compound I-11]
Plasma concentration Individual (IV 5 mg/kg, 0.083 hr, 5 mg/kg): 9810 ng/mL and 12300 ng/mL
Plasma concentration Individual (IV 5 mg/kg, 0.25 hr, 5 mg/kg): 5200 ng/mL and 5420 ng/mL
Plasma concentration Individual (IV 5 mg/kg, 0.5 hr, 5 mg/kg): 2920 ng/mL and 1730 ng/mL
Plasma concentration Individual (IV 5 mg/kg, 1 hr, 5 mg/kg): 865 ng/mL and 1180 ng/mL and 1810 ng/mL
Plasma concentration Individual (IV 5 mg/kg, 2 hr, 5 mg/kg): 142 ng/mL
Plasma concentration Individual (IV 5 mg/kg, 4 hr, 5 mg/kg): 48.5 ng/mL and 29.8 ng/mL
Plasma concentration Individual (IV 5 mg/kg, 8 hr, 5 mg/kg): 26.1 ng/mL and 15.9 ng/mL
Plasma concentration Individual [1]: BQL
Plasma concentration Mean [1]: BQL
abnormal clinical symptoms during in-life study (IV 5 mg/kg, PO 50 and 100 mg/kg single dose): No abnormal clinical symptoms were observed
F (PO 50 mg/kg vs IV 5 mg/kg): 50.9%
Plasma concentration Individual (PO 50 mg/kg, 0.083 hr, 50 mg/kg): 288 ng/mL and 220 ng/mL
Plasma concentration Individual (PO 50 mg/kg, 0.25 hr, 50 mg/kg): 1880 ng/mL and 2380 ng/mL and 1030 ng/mL
Plasma concentration Individual (PO 50 mg/kg, 0.5 hr, 50 mg/kg): 6750 ng/mL and 6980 ng/mL
Plasma concentration Individual (PO 50 mg/kg, 1 hr, 50 mg/kg): 5940 ng/mL and 6670 ng/mL
Plasma concentration Individual (PO 50 mg/kg, 2 hr, 50 mg/kg): 7770 ng/mL and 3890 ng/mL
Plasma concentration Individual (PO 50 mg/kg, 4 hr, 50 mg/kg): 1750 ng/mL and 2280 ng/mL
Plasma concentration Individual (PO 50 mg/kg, 8 hr, 50 mg/kg): 249 ng/mL and 325 ng/mL
Plasma concentration Individual (PO 50 mg/kg, 24 hr, 50 mg/kg): 3.85 ng/mL and 64.0 ng/mL and 182 ng/mL
F (PO 100 mg/kg vs IV 5 mg/kg): 60.0%
Plasma concentration Individual (PO 100 mg/kg, 0.083 hr, 100 mg/kg): 318 ng/mL and 232 ng/mL
Plasma concentration Individual (PO 100 mg/kg, 0.25 hr, 100 mg/kg): 2990 ng/mL and 2700 ng/mL
Plasma concentration Individual (PO 100 mg/kg, 0.5 hr, 100 mg/kg): 4890 ng/mL and 6670 ng/mL and 11900 ng/mL
Plasma concentration Individual (PO 100 mg/kg, 1 hr, 100 mg/kg): 6710 ng/mL and 7030 ng/mL
Plasma concentration Individual (PO 100 mg/kg, 2 hr, 100 mg/kg): 14100 ng/mL and 12300 ng/mL
Plasma concentration Individual (PO 100 mg/kg, 4 hr, 100 mg/kg): 4840 ng/mL and 6930 ng/mL and 12800 ng/mL
Plasma concentration Individual (PO 100 mg/kg, 8 hr, 100 mg/kg): 444 ng/mL and 503 ng/mL and 953 ng/mL
Plasma concentration Individual (PO 100 mg/kg, 24 hr, 100 mg/kg): 40.6 ng/mL and 57.5 ng/mL and 84.2 ng/mL
clearance (female, BALB/c, mouse, plasma, iv, 5 mg/kg, IV 5 mg/kg): 15.8 mL/min/kg
concentration at 0.083 hr (female, BALB/c, mouse, plasma, iv, 5 mg/kg, IV 5 mg/kg, 0.083 hr, read-out: Plasma concentration Individual): 7980 ng/mL
concentration at 0.083 hr (female, BALB/c, mouse, plasma, iv, 5 mg/kg, IV 5 mg/kg, 0.083 hr, read-out: Plasma concentration Mean): 10000 ng/mL
concentration at 0.25 hr (female, BALB/c, mouse, plasma, iv, 5 mg/kg, IV 5 mg/kg, 0.25 hr, read-out: Plasma concentration Individual): 5600 ng/mL
concentration at 0.25 hr (female, BALB/c, mouse, plasma, iv, 5 mg/kg, IV 5 mg/kg, 0.25 hr, read-out: Plasma concentration Mean): 5410 ng/mL
concentration at 0.5 hr (female, BALB/c, mouse, plasma, iv, 5 mg/kg, IV 5 mg/kg, 0.5 hr, read-out: Plasma concentration Individual): 2710 ng/mL
concentration at 0.5 hr (female, BALB/c, mouse, plasma, iv, 5 mg/kg, IV 5 mg/kg, 0.5 hr, read-out: Plasma concentration Mean): 2450 ng/mL
concentration at 1 hr (female, BALB/c, mouse, plasma, iv, 5 mg/kg, IV 5 mg/kg, 1 hr, read-out: Plasma concentration Mean): 1280 ng/mL
concentration at 2 hr (female, BALB/c, mouse, plasma, iv, 5 mg/kg, IV 5 mg/kg, 2 hr, read-out: Plasma concentration Individual): 135 ng/mL
concentration at 2 hr (female, BALB/c, mouse, plasma, iv, 5 mg/kg, IV 5 mg/kg, 2 hr, read-out: Plasma concentration Mean): 140 ng/mL
concentration at 4 hr (female, BALB/c, mouse, plasma, iv, 5 mg/kg, IV 5 mg/kg, 4 hr, read-out: Plasma concentration Individual): 58.3 ng/mL
concentration at 4 hr (female, BALB/c, mouse, plasma, iv, 5 mg/kg, IV 5 mg/kg, 4 hr, read-out: Plasma concentration Mean): 45.5 ng/mL
concentration at 8 hr (female, BALB/c, mouse, plasma, iv, 5 mg/kg, IV 5 mg/kg, 8 hr, read-out: Plasma concentration Individual): 19 ng/mL
concentration at 8 hr (female, BALB/c, mouse, plasma, iv, 5 mg/kg, IV 5 mg/kg, 8 hr, read-out: Plasma concentration Mean): 20.3 ng/mL
concentration at 0.083 hr (female, BALB/c, mouse, plasma, po, 50 mg/kg, PO 50 mg/kg, 0.083 hr, read-out: Plasma concentration Individual): 263 ng/mL
concentration at 0.083 hr (female, BALB/c, mouse, plasma, po, 50 mg/kg, PO 50 mg/kg, 0.083 hr, read-out: Plasma concentration Mean): 257 ng/mL
concentration at 0.25 hr (female, BALB/c, mouse, plasma, po, 50 mg/kg, PO 50 mg/kg, 0.25 hr, read-out: Plasma concentration Mean): 1760 ng/mL
